From patent US20180273531A1, “PYRIMIDINE COMPOUND AND MEDICAL USE THEREOF” (Japan Tobacco Inc., priority 2004, published 2018)

Key:
Assay type in all cases: cell-based
[1] = tested on: colorectal cancer cell line HT-29 cells; experiment: Growth inhibitory effect against cancer cell lines (3H-thymidine uptake), HT-29; conditions: Homo sapiens, HT-29, inhibition of 3H-thymidine uptake; test substance 18 hrs, then 3H-thymidine 6 hrs; triplicate
Procedure, shortened: (§1)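 IC50 = concentration reducing ^3H-thymidine incorporation to 50% of DMSO control, measured in triplicate. Compound added 24 hrs after plating (1.0×10^4 cells/well); label (0.25 μCi/well) given after 18 hrs of treatment, followed by 6 hrs further culture and scintillation counting of harvested cells.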

[2] = tested on: ACHN cells or HT-29 cells; experiment: Cell cycle analysis (flow cytometry, CycleTEST PLUS); conditions: test substance less than 10 μM, 24 hrs, compared to DMSO, n=2, read-out: CELL RATIO OF G0/G1 PHASE
Protocol: ACHN cells or HT-29 cells were cultured in a 6 well plate at 2.5×10^5 cells/1.8 mL/well for 24 hrs, then a test substance (less than 10 μM) dissolved in DMSO was added. After 24 hrs, cells were detached using trypsin-EDTA and the DNA content of single cell was analyzed by flow cytometry method using a CycleTEST PLUS (BECKTON DICKINSON) kit, and the proportion of the cells in the G0/G1 phase·S phase·G2/M phase was calculated. As a control, DMSO was used and the test was performed with n=2.

[3] = tested on: p15 protein; experiment: Evaluation of p15 induction activity (Western blotting); conditions: test substance 0.1 μM, 24 hrs, ACHN cells or HT-29 cells, compared to DMSO, n=2
Procedure, shortened: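 p15 protein quantified by densitometry of anti-p15 Western blots (10 μg protein per lane, mean of n=2). Samples came from HT-29 or ACHN cells given 0.1 μM compound for 24 h after 24 h plating, with DMSO as control.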

[4] = tested on: Renal cancer cell line ACHN cell; experiment: Growth inhibitory effect against cancer cell lines (3H-thymidine uptake), ACHN; conditions: Homo sapiens, ACHN
Procedure, shortened: as §1

[5] = tested on: p27 protein; experiment: p27 protein induction test (Western blotting); conditions: test substance (0.1 1M), 24 hrs, ACHN cells or HT-29 cells, compared to DMSO, n=2
Procedure, shortened: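 p27 level taken as anti-p27 band density by densitometry, mean of n=2, with DMSO as control. Samples loaded at amount equivalent to 10 μg BSA. Cells were ACHN or HT-29, exposed 24 h to […] test substance after 24 h pre-culture.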

## Cn1c(=O)cc(Nc2ccc(Cl)cc2)c2c(=O)n(-c3ccccc3)c(=O)n(-c3ccccc3)c21 [Example 1-2]
[1]
  IC50: 100 to 1000 nM
[2]
  fold induction: ≥ 1.2

## Cn1c(=O)cc(Nc2ccccc2Cl)c2c(=O)n(-c3ccccc3)c(=O)n(-c3ccccc3)c21 [Example 1-4]
[3]
  fold induction at 0.1 µM: ≥ 1.5
[2]
  fold induction: ≥ 1.2

## Cc1ccc(Nc2cc(=O)n(C)c3c2c(=O)n(-c2ccccc2)c(=O)n3-c2ccccc2)cc1 [Example 1-6]
[3]
  fold induction at 0.1 µM: ≥ 1.5
[2]
  fold induction: ≥ 1.2

## COc1ccc(Nc2cc(=O)n(C)c3c2c(=O)n(-c2ccccc2)c(=O)n3-c2ccccc2)cc1 [Example 1-9]
[3]
  fold induction at 0.1 µM: ≥ 1.5
[2]
  fold induction: ≥ 1.2

## CCc1ccc(Nc2cc(=O)n(C)c3c2c(=O)n(-c2ccccc2)c(=O)n3-c2ccccc2)cc1 [Example 1-21]
[2]
  fold induction: ≥ 1.2

## CC(C)c1ccc(Nc2cc(=O)n(C)c3c2c(=O)n(-c2ccccc2)c(=O)n3-c2ccccc2)cc1 [Example 1-25]
[2]
  fold induction: ≥ 1.2

## Cn1c(=O)cc(Nc2ccc(Cl)cc2Cl)c2c(=O)n(-c3ccccc3)c(=O)n(-c3ccccc3)c21 [Example 1-26]
[3]
  fold induction at 0.1 µM: ≥ 1.5
[2]
  fold induction: ≥ 1.2

## Cn1c(=O)cc(Nc2ccc(C(F)(F)F)cc2)c2c(=O)n(-c3ccccc3)c(=O)n(-c3ccccc3)c21 [Example 1-33]
[3]
  fold induction at 0.1 µM: ≥ 1.5
[2]
  fold induction: ≥ 1.2

## Cc1ccc(Nc2cc(=O)n(C)c3c2c(=O)n(-c2ccccc2)c(=O)n3-c2ccccc2)c(Cl)c1 [Example 1-34]
[3]
  fold induction at 0.1 µM: ≥ 1.5
[2]
  fold induction: ≥ 1.2

## CCc1ccccc1Nc1cc(=O)n(C)c2c1c(=O)n(-c1ccccc1)c(=O)n2-c1ccccc1 [Example 1-38]
[3]
  fold induction at 0.1 µM: ≥ 1.5
[2]
  fold induction: ≥ 1.2

## Cc1c(Nc2ccc(Cl)cc2)c2c(=O)n(-c3ccccc3)c(=O)n(-c3ccccc3)c2n(C)c1=O [Example 1-43]
[3]
  fold induction at 0.1 µM: ≥ 1.5
[2]
  fold induction: ≥ 1.2

## CNc1ccc(Nc2cc(=O)n(C)c3c2c(=O)n(-c2ccccc2)c(=O)n3-c2ccccc2)cc1 [Example 1-49]
[3]
  fold induction at 0.1 µM: ≥ 1.5
[2]
  fold induction: ≥ 1.2

## CCCc1ccccc1Nc1cc(=O)n(C)c2c1c(=O)n(-c1ccccc1)c(=O)n2-c1ccccc1 [Example 1-50]
[2]
  fold induction: ≥ 1.2

## CCCCc1ccccc1Nc1cc(=O)n(C)c2c1c(=O)n(-c1ccccc1)c(=O)n2-c1ccccc1 [Example 1-51]
[3]
  fold induction at 0.1 µM: ≥ 1.5
[2]
  fold induction: ≥ 1.2

## Cn1c(=O)cc(Nc2ccc(Cl)cc2)c2c(=O)n(-c3ccsc3)c(=O)n(-c3ccsc3)c21 [Example 1-77]
[3]
  fold induction at 0.1 µM: ≥ 1.5
[2]
  fold induction: ≥ 1.2

## CCn1c(=O)c2c(Nc3ccc(Cl)cc3)cc(=O)n(C)c2n(-c2ccccc2)c1=O [Example 1-78]
[3]
  fold induction at 0.1 µM: ≥ 1.5
[2]
  fold induction: ≥ 1.2

## Cn1c(=O)cc(Nc2ccc(Cl)cc2)c2c(=O)n(C3CC3)c(=O)n(-c3ccccc3)c21 [Example 1-84]
[3]
  fold induction at 0.1 µM: ≥ 1.5
[2]
  fold induction: ≥ 1.2

## Cc1ccccc1-n1c(=O)n(C)c(=O)c2c(Nc3ccc(Cl)cc3)cc(=O)n(C)c21 [Example 1-85]
[3]
  fold induction at 0.1 µM: ≥ 1.5
[2]
  fold induction: ≥ 1.2

## Cc1cccc(-n2c(=O)n(C)c(=O)c3c(Nc4ccc(Cl)cc4)cc(=O)n(C)c32)c1 [Example 1-86]
[3]
  fold induction at 0.1 µM: ≥ 1.5
[2]
  fold induction: ≥ 1.2

## Cn1c(=O)cc(Nc2ccc(Cl)cc2)c2c(=O)n(CC(F)(F)F)c(=O)n(-c3ccccc3)c21 [Example 1-90]
[2]
  fold induction: ≥ 1.2

## CCCc1c(Nc2ccc(Cl)cc2)c2c(=O)n(-c3ccccc3)c(=O)n(-c3ccccc3)c2n(C)c1=O [Example 1-91]
[2]
  fold induction: ≥ 1.2

## Cn1c(=O)cc(Nc2ccc(Br)cc2)c2c(=O)n(CC(F)(F)F)c(=O)n(-c3ccccc3)c21 [Example 1-92]
[3]
  fold induction at 0.1 µM: ≥ 1.5
[2]
  fold induction: ≥ 1.2

## CN(C)c1ccc(Nc2cc(=O)n(C)c3c2c(=O)n(CC(F)(F)F)c(=O)n3-c2ccccc2)cc1 [Example 1-93]
[3]
  fold induction at 0.1 µM: ≥ 1.5
[2]
  fold induction: ≥ 1.2

## CCn1c(=O)c2c(Nc3ccc(Cl)cc3)cc(=O)n(C)c2n(-c2ccc(Cl)cc2)c1=O [Example 1-94]
[3]
  fold induction at 0.1 µM: ≥ 1.5
[2]
  fold induction at up to 10 µM: ≥ 1.2

## Cn1c(=O)cc(Nc2ccc(Cl)cc2)c2c(=O)n(C3CC3)c(=O)n(-c3ccccc3C(F)(F)F)c21 [Example 1-101]
[2]
  fold induction: ≥ 1.2

## Cc1ccccc1-n1c(=O)n(C2CC2)c(=O)c2c(Nc3ccc(Cl)cc3)cc(=O)n(C)c21 [Example 1-102]
[3]
  fold induction at 0.1 µM: ≥ 1.5
[2]
  fold induction: ≥ 1.2

## CCc1ccccc1-n1c(=O)n(C2CC2)c(=O)c2c(Nc3ccc(Cl)cc3)cc(=O)n(C)c21 [Example 1-103]
[3]
  fold induction at 0.1 µM: ≥ 1.5
[2]
  fold induction: ≥ 1.2

## Cc1c(=O)n(C)c(Nc2ccc(I)cc2F)c2c(=O)n(C3CC3)c(=O)n(-c3cccc(NC4=NCCO4)c3)c12 [Example 4-110]
[4]
  IC50: 10 to 100 nM
[1]
  IC50: < 10 nM
[3]
  fold induction at 0.1 µM: ≥ 1.5
[5]
  fold induction at 0.1 µM: ≥ 1.5

## Cc1c(=O)n(C)c(Nc2ccc(I)cc2F)c2c(=O)n(C3CC3)c(=O)n(-c3cccc(NC=O)c3)c12 [Example 4-113]
[4]
  IC50: < 10 nM
[1]
  IC50: < 10 nM
[3]
  fold induction at 0.1 µM: ≥ 1.5
[5]
  fold induction at 0.1 µM: ≥ 1.5

## Cc1c(=O)n(C)c(Nc2ccc(I)cc2F)c2c(=O)n(C3CC3)c(=O)n(-c3cccc(N4CCNS4(=O)=O)c3)c12 [Example 4-114]
[4]
  IC50: 10 to 100 nM
[1]
  IC50: < 10 nM
[3]
  fold induction at 0.1 µM: ≥ 1.5
[5]
  fold induction at 0.1 µM: ≥ 1.5

## Cc1c(=O)n(C)c(Nc2ccc(I)cc2F)c2c(=O)n(C3CC3)c(=O)n(-c3ccc4cn[nH]c4c3)c12 [Example 4-115]
[4]
  IC50: 10 to 100 nM
[1]
  IC50: < 10 nM
[3]
  fold induction at 0.1 µM: ≥ 1.5
[5]
  fold induction at 0.1 µM: ≥ 1.5

## Cc1c(=O)n(C)c(Nc2ccc(I)cc2F)c2c(=O)n(C3CC3)c(=O)n(-c3ccc(NS(C)(=O)=O)c(Cl)c3)c12 [Example 4-116]
[4]
  IC50: 100 to 1000 nM
[1]
  IC50: < 10 nM
[3]
  fold induction at 0.1 µM: ≥ 1.5
[5]
  fold induction at 0.1 µM: ≥ 1.5

## Cc1cc(-n2c(=O)n(C3CC3)c(=O)c3c(Nc4ccc(I)cc4F)n(C)c(=O)c(C)c32)ccc1NS(C)(=O)=O [Example 4-117]
[4]
  IC50: 100 to 1000 nM
[1]
  IC50: < 10 nM
[3]
  fold induction at 0.1 µM: ≥ 1.5
[5]
  fold induction at 0.1 µM: ≥ 1.5

## Cc1c(=O)n(C)c(Nc2ccc(I)cc2F)c2c(=O)n(C3CC3)c(=O)n(-c3ccc4c(c3)NC(=O)CO4)c12 [Example 4-118]
[4]
  IC50: 10 to 100 nM
[1]
  IC50: < 10 nM
[3]
  fold induction at 0.1 µM: ≥ 1.5
[5]
  fold induction at 0.1 µM: ≥ 1.5

## Cc1c(=O)n(C)c(Nc2ccc(I)cc2F)c2c(=O)n(C)c(=O)n(-c3ccc(S(N)(=O)=O)cc3)c12 [Example 4-119]
[4]
  IC50: 10 to 100 nM
[1]
  IC50: < 10 nM
[3]
  fold induction at 0.1 µM: ≥ 1.5
[5]
  fold induction at 0.1 µM: ≥ 1.5

## CSc1ccc(Nc2c3c(=O)n(C4CC4)c(=O)n(-c4cccc(NS(N)(=O)=O)c4)c3c(C)c(=O)n2C)c(F)c1 [Example 4-120]
[4]
  IC50: 10 to 100 nM
[1]
  IC50: < 10 nM
[3]
  fold induction at 0.1 µM: ≥ 1.5
[5]
  fold induction at 0.1 µM: ≥ 1.5

## Cc1c(=O)n(C)c(Nc2ccc(I)cc2F)c2c(=O)n(C3CC3)c(=O)n(-c3ccc4[nH]nnc4c3)c12 [Example 4-121]
[4]
  IC50: 10 to 100 nM
[1]
  IC50: < 10 nM
[3]
  fold induction at 0.1 µM: ≥ 1.5
[5]
  fold induction at 0.1 µM: ≥ 1.5

## Cc1c(=O)n(C)c(Nc2ccc(I)cc2F)c2c(=O)n(C3CC3)c(=O)n(-c3cccc(N4CCN(C)CC4=O)c3)c12 [Example 4-122]
[4]
  IC50: 10 to 100 nM
[1]
  IC50: < 10 nM
[3]
  fold induction at 0.1 µM: ≥ 1.5
[5]
  fold induction at 0.1 µM: ≥ 1.5

## Cc1c(=O)n(C)c(Nc2ccc(I)cc2F)c2c(=O)n(C3CC3)c(=O)n(-c3ccc4c(c3)NC(=O)CC4)c12 [Example 4-123]
[4]
  IC50: 100 to 1000 nM
[1]
  IC50: < 10 nM
[3]
  fold induction at 0.1 µM: ≥ 1.5
[5]
  fold induction at 0.1 µM: ≥ 1.5

## Cc1c(=O)n(C)c(Nc2ccc(I)cc2F)c2c(=O)n(C3CC3)c(=O)n(-c3cccc(N4CCNC4=O)c3)c12 [Example 4-124]
[4]
  IC50: 10 to 100 nM
[1]
  IC50: < 10 nM
[3]
  fold induction at 0.1 µM: ≥ 1.5
[5]
  fold induction at 0.1 µM: ≥ 1.5

## Cc1c(=O)n(C)c(Nc2ccc(I)cc2F)c2c(=O)n(C3CC3)c(=O)n(-c3cccc(N4CCOC4=O)c3)c12 [Example 4-125]
[4]
  IC50: < 10 nM
[1]
  IC50: < 10 nM
[3]
  fold induction at 0.1 µM: ≥ 1.5
[5]
  fold induction at 0.1 µM: ≥ 1.5

## Cc1c(=O)n(C)c(Nc2ccc(I)cc2F)c2c(=O)n(C3CC3)c(=O)n(-c3cccc(S(N)(=O)=O)c3)c12 [Example 4-127]
[4]
  IC50: 10 to 100 nM
[1]
  IC50: < 10 nM
[3]
  fold induction at 0.1 µM: ≥ 1.5
[5]
  fold induction at 0.1 µM: ≥ 1.5

## Cc1c(=O)n(C)c(Nc2ccc(I)cc2F)c2c(=O)n(C3CC3)c(=O)n(-c3ccc4c(c3)NC(=O)C4(C)C)c12 [Example 4-128]
[4]
  IC50: 10 to 100 nM
[1]
  IC50: < 10 nM
[3]
  fold induction at 0.1 µM: ≥ 1.5
[5]
  fold induction at 0.1 µM: ≥ 1.5
